In one assay the test system is HepG2 cells. Nature of the assay: CCK-8 antiproliferative assay, HepG2. The settings on record: Homo sapiens, read-out: IC50 HepG2. The assay is classed as cell-based. On the procedure: (§1) All cells were cultured in Dulbecco’s Modified Eagle’s Medium (DMEM) (Burlington, MA, USA) or Roswell Park Memorial Institute (RPMI)-1640 medium containing 10% fetal bovine serum and 1% penicillin/streptomycin in an incubator at 37 °C and 5% CO2. […] Cell suspension with a concentration of 8 × 10^4 cells/mL was prepared after cell counting. 100 μL cell suspension was added to each well of the 96-well plate and then placed in an incubator overnight. Most of the derivatives were configured into 80 mM, 20 mM or 4 mM stock solution in DMSO, and the stock solution concentration of BFA and paclitaxel was 0.4 mM. […] The medium in each well was discarded, and 100 μL of gradient diluted derivative solution was added (the control group was added with serum-free medium).
A general note: Tetrazolium assays rely on reduction of a dye to a coloured formazan, in cell work by metabolically active cells.

A further assay relates to MDA-MB-231 cells. The assay can be described thus: CCK-8 antiproliferative assay, MDA-MB-231. The assay is classed as cell-based. Conditions: Homo sapiens, read-out: IC50 MDA-MB-231. The method, then:
as §1

In a further assay the test system is A375 cells. The assay can be described thus: CCK-8 antiproliferative assay, A375. It counts as cell-based. Conditions: Homo sapiens, read-out: IC50 A375. The method, then: as §1
The test system of the next assay is A549 cells. Nature of the assay: CCK-8 antiproliferative assay, A549. It counts as cell-based. The settings on record: Homo sapiens, read-out: IC50 A549. The method, then: as §1
A further assay has as its system HeLa cells. Nature of the assay: CCK-8 antiproliferative assay, HeLa. The assay is classed as cell-based, human. The settings on record: for IC50: Homo sapiens, HeLa, read-out: IC50 HeLa; for SIHeLa, selectivity index between L-02 and HeLa: SI = IC50(L-02)/IC50(HeLa). On the procedure: as §1
A further assay relates to L-02 cells. Nature of the assay: CCK-8 cytotoxicity assay, normal liver L-02. The assay is classed as cell-based. Conditions: Homo sapiens, read-out: IC50 L-02. The method, then:
as §1

Where [1] appears, read: HepG2, CCK-8, 48 h, mean ± SD of three experiments.
Setting [2] is: MDA-MB-231, CCK-8, 48 h, mean ± SD of three experiments.
Where [3] appears, read: A-375, CCK-8, 48 h, mean ± SD of three experiments.
Where [4] appears, read: A549, CCK-8, 48 h, mean ± SD of three experiments.
Where [5] appears, read: CCK-8, 48 h, mean ± SD of three experiments.
[6] abbreviates: L02, CCK-8, 48 h, normal liver cells, mean ± SD of three experiments.

Twelve compounds from paper PMC10254530, “Design and Synthesis of Brefeldin A-Isothiocyanate Derivatives with Selectivity and Their Potential for Cervical Cancer Therapy” (Molecules, 2023) can be followed below.

Read-outs that look alike come from different tables or passages of the source.

The IC50 is the concentration that gives 50% inhibition. Regarding `C[C@H]1CCC/C=C/[C@@H]2C[C@H](O)C[C@H]2[C@H](O)/C=C/C(=O)O1` [BFA, Brefeldin A], the IC50 came to 0.12 ± 0.01 µM with HepG2 cells (setting [1]); 0.054 ± 0.001 µM in the assay with MDA-MB-231 cells (setting [2]); 0.039 ± 0.001 µM in the assay with A375 cells (setting [3]); 0.056 ± 0.002 µM in the assay on A549 cells (setting [4]); 0.044 ± 0.004 µM with HeLa cells (setting [5]); 0.094 ± 0.004 µM in the assay with L-02 cells (setting [6]). For the same compound, the “SIHeLa, selectivity index between L-02 and HeLa” value with HeLa cells came to 2.14.

Consider `O=C(O)c1ccc(N=C=S)cc1` [Compound 2, 4-Carboxyphenyl isothiocyanate, reference compound], for which the IC50 in the assay on HepG2 cells (HepG2, 48 h) was > 100 µM; in the assay on MDA-MB-231 cells (MDA-MB-231, 48 h), 82.1 ± 2.7 µM; in the assay with A375 cells (A-375, 48 h) it was 43 ± 3.34 µM; in the assay with A549 cells (A549, 48 h), 79.2 ± 2.52 µM; with HeLa cells (48 h), 45.7 ± 1.74 µM; in the assay with L-02 cells (L02, 48 h) it was 67.8 ± 2 µM. In addition, the “SIHeLa, selectivity index between L-02 and HeLa” value in the assay on HeLa cells turned out to be 1.48.

In the case of `C[C@H]1CCC/C=C/[C@@H]2C[C@H](OC(=O)c3ccc(N=C=S)cc3)C[C@H]2[C@H](OC(=O)c2ccc(N=C=S)cc2)/C=C/C(=O)O1` [Compound 5, (1R,2E,6S,10E,11aS,13S,14aR)-6-methyl-4-oxo-1,6,7,8,9,11a,12,13,14,14a-decahydro-4H-cyclopenta[f][1]oxacyclotridecine-1,13-diyl bis(4-isothiocyanatobenzoate)], the IC50 with HepG2 cells (setting [1]) is > 40 µM; with MDA-MB-231 cells (setting [2]), > 40 µM; in the assay on A375 cells (setting [3]), > 40 µM; in the assay with A549 cells (setting [4]), 20.9 ± 1.42 µM; with HeLa cells (setting [5]), > 40 µM; in the assay on L-02 cells (setting [6]) it was > 80 µM.

Turning to `C[C@H]1CCC/C=C/[C@@H]2C[C@H](OC(=O)c3ccc(N=C=S)cc3)C[C@H]2[C@H](O)/C=C/C(=O)O1` [Compound 7, (1R,2E,6S,10E,11aS,13S,14aR)-1-Hydroxy-6-methyl-4-oxo-1,6,7,8,9,11a,12,13,14,14a-decahydro-4H-cyclopenta[f][1]oxacyclotridecin-13-yl 4-isothiocyanatobenzoate], the IC50 in the assay on HepG2 cells (setting [1]) is > 40 µM; with MDA-MB-231 cells (setting [2]), 17 ± 1.21 µM; in the assay with A375 cells (setting [3]), 5.78 ± 0.1 µM; in the assay with A549 cells (setting [4]), 20.4 ± 1.31 µM; in the assay on HeLa cells (setting [5]) it was 3.02 ± 0.23 µM; with L-02 cells (setting [6]), 8.6 ± 0.71 µM. Further, the “SIHeLa, selectivity index between L-02 and HeLa” value in the assay on HeLa cells is 2.85.

With `C[C@H]1CCC/C=C/[C@@H]2C[C@H](OC(=O)CCC(=O)OCCOC(=O)c3ccc(N=C=S)cc3)C[C@H]2[C@H](OC(=O)CCC(=O)OCCOC(=O)c2ccc(N=C=S)cc2)/C=C/C(=O)O1` [Compound 8a, Bis(2-((4-isothiocyanatobenzoyl)oxy)ethyl) O,O’-((1R,2E,6S,10E,11aS,13S,14aR)-6-methyl-4-oxo-1,6,7,8,9,11a,12,13,14,14a-decahydro-4H-cyclopenta[f][1]oxacyclotridecine-1,13-diyl) disuccinate], the IC50 in the assay with HepG2 cells (setting [1]) was > 40 µM; in the assay with MDA-MB-231 cells (setting [2]), > 40 µM; in the assay on A375 cells (setting [3]) it was > 40 µM; in the assay on A549 cells (setting [4]), > 40 µM; with HeLa cells (setting [5]) it was 12 ± 1.47 µM; in the assay on L-02 cells (setting [6]), > 80 µM. In the assay with HeLa cells, the “SIHeLa, selectivity index between L-02 and HeLa” value is on record as >6.68.

As to `C[C@H]1CCC/C=C/[C@@H]2C[C@H](OC(=O)CCC(=O)OCCCCOC(=O)c3ccc(N=C=S)cc3)C[C@H]2[C@H](OC(=O)CCC(=O)OCCCCOC(=O)c2ccc(N=C=S)cc2)/C=C/C(=O)O1` [Compound 8b, Bis(4-((4-isothiocyanatobenzoyl)oxy)butyl) O,O’-((1R,2E,6S,10E,11aS,13S,14aR)-6-methyl-4-oxo-1,6,7,8,9,11a,12,13,14,14a-decahydro-4H-cyclopenta[f][1]oxacyclotridecine-1,13-diyl) disuccinate], the IC50 in the assay on HepG2 cells (setting [1]) was > 40 µM; with MDA-MB-231 cells (setting [2]) it was > 40 µM; in the assay on A375 cells (setting [3]), > 40 µM; in the assay on A549 cells (setting [4]), > 40 µM; in the assay on HeLa cells (setting [5]), 16.4 ± 1.35 µM; in the assay with L-02 cells (setting [6]), > 80 µM. Besides, the “SIHeLa, selectivity index between L-02 and HeLa” value in the assay with HeLa cells was >4.88.

With `C[C@H]1CCC/C=C/[C@@H]2C[C@H](OC(=O)CCC(=O)OCC#CCOC(=O)c3ccc(N=C=S)cc3)C[C@H]2[C@H](OC(=O)CCC(=O)OCC#CCOC(=O)c2ccc(N=C=S)cc2)/C=C/C(=O)O1` [Compound 8c, Bis(4-((4-isothiocyanatobenzoyl)oxy)but-2-yn-1-yl) O,O’-((1R,2E,6S,10E,11aS,13S,14aR)-6-methyl-4-oxo-1,6,7,8,9,11a,12,13,14,14a-decahydro-4H-cyclopenta[f][1]oxacyclotridecine-1,13-diyl) disuccinate], the IC50 in the assay with HepG2 cells (setting [1]) was > 40 µM; in the assay on MDA-MB-231 cells (setting [2]), > 40 µM; in the assay with A375 cells (setting [3]) it was > 40 µM; with A549 cells (setting [4]), > 40 µM; in the assay with HeLa cells (setting [5]), 39 ± 1.43 µM; in the assay on L-02 cells (setting [6]), > 80 µM. For the same compound, the “SIHeLa, selectivity index between L-02 and HeLa” value with HeLa cells is listed as >2.05.

`C[C@H]1CCC/C=C/[C@@H]2C[C@H](OC(=O)CCC(=O)OCCOCCOC(=O)c3ccc(N=C=S)cc3)C[C@H]2[C@H](OC(=O)CCC(=O)OCCOCCOC(=O)c2ccc(N=C=S)cc2)/C=C/C(=O)O1` [Compound 8d, Bis(2-(2-((4-isothiocyanatobenzoyl)oxy)ethoxy)ethyl) O,O’-((1R,2E,6S,10E,11aS,13S,14aR)-6-methyl-4-oxo-1,6,7,8,9,11a,12,13,14,14a-decahydro-4H-cyclopenta[f][1]oxacyclotridecine-1,13-diyl) disuccinate]: the IC50 is > 40 µM with HepG2 cells (setting [1]); > 40 µM with MDA-MB-231 cells (setting [2]); 22.8 ± 1.58 µM in the assay on A375 cells (setting [3]); > 40 µM with A549 cells (setting [4]); 7.67 ± 0.33 µM in the assay on HeLa cells (setting [5]); > 80 µM in the assay on L-02 cells (setting [6]).

For `C[C@H]1CCC/C=C/[C@@H]2C[C@H](OC(=O)CCC(=O)OCCCCCCOC(=O)c3ccc(N=C=S)cc3)C[C@H]2[C@H](OC(=O)CCC(=O)OCCCCCCOC(=O)c2ccc(N=C=S)cc2)/C=C/C(=O)O1` [Compound 8e, Bis(6-((4-isothiocyanatobenzoyl)oxy)hexyl) O,O’-((1R,2E,6S,10E,11aS,13S,14aR)-6-methyl-4-oxo-1,6,7,8,9,11a,12,13,14,14a-decahydro-4H-cyclopenta[f][1]oxacyclotridecine-1,13-diyl) disuccinate], the IC50 in the assay with HepG2 cells (setting [1]) was > 40 µM; with MDA-MB-231 cells (setting [2]), > 40 µM; with A375 cells (setting [3]), > 40 µM; in the assay with A549 cells (setting [4]) it was > 40 µM; in the assay on HeLa cells (setting [5]) it was 26.8 ± 0.7 µM; in the assay with L-02 cells (setting [6]), > 80 µM. Further, the “SIHeLa, selectivity index between L-02 and HeLa” value in the assay on HeLa cells is >2.99.

On to `C[C@H]1CCC/C=C/[C@@H]2C[C@H](OC(=O)CCC(=O)Oc3ccc(OC(=O)c4ccc(N=C=S)cc4)cc3)C[C@H]2[C@H](OC(=O)CCC(=O)Oc2ccc(OC(=O)c3ccc(N=C=S)cc3)cc2)/C=C/C(=O)O1` [Compound 8f, Bis(4-((4-isothiocyanatobenzoyl)oxy)phenyl) O,O’-((1R,2E,6S,10E,11aS,13S,14aR)-6-methyl-4-oxo-1,6,7,8,9,11a,12,13,14,14a-decahydro-4H-cyclopenta[f][1]oxacyclotridecine-1,13-diyl) disuccinate], for which the IC50 in the assay on HepG2 cells (setting [1]) is > 40 µM; with MDA-MB-231 cells (setting [2]), > 40 µM; in the assay with A375 cells (setting [3]), > 40 µM; in the assay with A549 cells (setting [4]) it was > 40 µM; with HeLa cells (setting [5]), > 40 µM; with L-02 cells (setting [6]), > 80 µM.

`C[C@H]1CCC/C=C/[C@@H]2C[C@H](OC(=O)/C=C\C(=O)OCCOC(=O)c3ccc(N=C=S)cc3)C[C@H]2[C@H](OC(=O)/C=C\C(=O)OCCOC(=O)c2ccc(N=C=S)cc2)/C=C/C(=O)O1` [Compound 8g, Bis(2-((4-isothiocyanatobenzoyl)oxy)ethyl) O,O’-((1R,2E,6S,10E,11aS,13S,14aR)-6-methyl-4-oxo-1,6,7,8,9,11a,12,13,14,14a-decahydro-4H-cyclopenta[f][1]oxacyclotridecine-1,13-diyl) dimaleate]: the IC50 in the assay with HepG2 cells (setting [1]) was > 40 µM; in the assay on MDA-MB-231 cells (setting [2]), > 40 µM; in the assay on A375 cells (setting [3]) it was > 40 µM; with A549 cells (setting [4]), > 40 µM; with HeLa cells (setting [5]) it was 9.74 ± 0.37 µM; in the assay with L-02 cells (setting [6]), > 80 µM. The “SIHeLa, selectivity index between L-02 and HeLa” value in the assay on HeLa cells is reported as >8.21.

For `C[C@H]1CCC/C=C/[C@@H]2C[C@H](OC(=O)/C=C\C(=O)OCCCCOC(=O)c3ccc(N=C=S)cc3)C[C@H]2[C@H](OC(=O)/C=C\C(=O)OCCCCOC(=O)c2ccc(N=C=S)cc2)/C=C/C(=O)O1` [Compound 8h, Bis(4-((4-isothiocyanatobenzoyl)oxy)butyl) O,O’-((1R,2E,6S,10E,11aS,13S,14aR)-6-methyl-4-oxo-1,6,7,8,9,11a,12,13,14,14a-decahydro-4H-cyclopenta[f][1]oxacyclotridecine-1,13-diyl) dimaleate], the IC50 in the assay with HepG2 cells (setting [1]) is > 40 µM; in the assay with MDA-MB-231 cells (setting [2]), > 40 µM; in the assay with A375 cells (setting [3]) it was > 40 µM; with A549 cells (setting [4]), > 40 µM; in the assay on HeLa cells (setting [5]), 8.48 ± 0.72 µM; with L-02 cells (setting [6]), > 80 µM.
